Results taken from patent US6413764B1, “Human metabotropic glutamate receptors, nucleic acids encoding same and uses thereof” (Merck & Co., Inc., priority 1993, dated 2002).
Where two headings read alike, the source gives them in different places.

Legend:
human mGluR5a receptor [1] = molecular target: T1, human mGluR5a receptor (Homo sapiens, UniProt P41594); assay: Automated fluorescence assay (fluo-3) in transiently transfected HEK 293 cells; type: cell-based; set-up: expressed in transfected cells; host or cells: HEK 293 cells, transient CaPO4 transfection
Experimental: HEK 293 cells were transiently transfected with DNA encoding mGluR5a (constructs mGluR5a2 and mGluR5a3 and construct MMTV-hmGluR5a) receptors. Approximately 2×10^6 HEK cells were transiently transfected with 5-18 μg (or 0.18 μg in some transfections, see Example 3.C.2.) of the indicated plasmid according to standard CaPO4 transfection procedures [see Wigler et al. (1979) Proc. Natl. Acad. Sci. USA 76:1373-1376]. In addition, 0.5-2 μg (or 0.18 μg in some transfections, see Example 3.C.2) of plasmid pCMVβgal (Clontech Laboratories, Palo Alto, Calif.), which contains the Escherichia coli β-galactosidase gene fused to the CMV promoter, were co-transfected as a reporter gene for monitoring the efficiency of transfection. The transfectants were analyzed for β-galactosidase expression by direct staining of the product of a reaction involving β-galactosidase and the X-gal substrate [Jones (1986) EMBO 5:3133-3142]. Transfectants can also be analyzed for β-galactosidase expression by measurement of β-galactosidase activity [Miller (1972) in Experiments in Molecular Genetics, pp.352-355, Cold Spring Harbor Press].
HEK 293 cells that were transiently transfected with 5 μg of MMTV-hmGluR5A were co-transfected with 5 μg of pRShGR (ATCC accession no. 67200) which contains DNA encoding a glucocorticoid receptor operatively linked to the Rous Sarcoma virus (RSV) LTR promoter. Co-expression of glucocorticoid receptors in these cells should insure that induction of expression of the MMTV promoter-mGluR5a DNA occurs upon addition of glucocorticoid (e.g., dexamethasone) to the cells.
Untransfected HEK 293 cells (or HEK 293 cells transiently transfected with pCMV-T7-3) and HEK 293 cells that had been transfected with mGluR5a-encoding DNA were plated in the wells of a 96-well microtiter dish (Nunc Catalog No. 1-6708, distributed by Alameda Industries, Escondido, Calif.) that had been precoated with poly-L-lysine at a density of 2×10^5 cells/well and loaded with fluo-3 by incubation for 2 hours at 20° C. in a medium containing 20 μM fluo-3, 0.2% Pluronic F-127 in HBS (125 mM NaCl, 5 mM KCl, 1.8 mM CaCl2, 0.62 MM MgCl2, 20 mM glucose, 20 mM HEPES, pH 7.4). The cells were then washed with assay buffer (i.e. HBS). The microtiter dish was then placed into a fluorescence plate reader (e.g., Fluoroskan II, Lab Products International, Ltd., Raleigh, N.C.), and the basal fluorescence of each well was measured and recorded before addition of metabotropic receptor-modulating compounds such as quisqualate, glutamate, trans-ACPD (1-amino-cyclopentane-1,3-dicarboxylic acid), 1S,3R-ACPD, AP3 (2-amino-3-phosphonopropionate) AP5 (2-amino-5-phosphonopentanoate), and CNQX (6-cyano-7-nitroquinoxaline-2,3-dione) to the wells. The fluorescence of the wells was monitored repeatedly (75 readings at 0.63-sec intervals) following addition of agonist.

human mGluR5a receptor [2] = molecular target: T1, human mGluR5a receptor; assay: Phosphatidylinositol hydrolysis (IP1) assay in HEK 293 cells transiently transfected with mGluR5a3; type: cell-based; set-up: expressed in transfected cells; host or cells: HEK 293 cells, transient CaPO4 transfection
Experimental: HEK 293 cells that had been transiently transfected with mGluR5a3 were plated in 24-well microtiter plates at a density of 8×10^5 cells/well. After the cells were allowed to settle and adhere to the bottom of the plate for a few hours, 2 μCi of [^3H]-myo-inositol (Amersham catalog # PT6-271, Arlington Heights, Ill.; specific activity=17.7 Ci/mmol) was added to each well and incubated overnight at 37° C. The next day, the cells were examined under a Nikon Diaphot inverted microscope to assess the health of the cells morphologically as well as to determine if the wells contained a confluent layer of cells. Media was then aspirated and the cells were washed twice with 0.5 ml Krebs bicarbonate buffer [117.9 mM NaCl, 4.72 mM KCl, 2.54 mM CaCl2, 1.18 mM MgSO4, 1.19 mM KH2PO4, 25 mM NaHCO3, 11.1 mM dextrose (equilibrated with 95% O2, 5% CO2, pH 7.4)]. The cells were incubated for 45 min. at room temperature. The buffer was then aspirated from each well and the cells were washed and incubated in 0.5 ml/well for 45 min at room temperature. The buffer was aspirated from each well, and the cells were then incubated for 20 min at 37° C. with 450 μl Krebs-bicarbonate buffer containing 10 mM LiCl instead of 10 mM NaCl (to block hydrolysis of IP1 to inositol and inorganic phosphate) and 10 mM unlabeled myo-inositol.
To begin treatment of the cells with metabotropic receptor-modulating compounds, 50 μl of Krebs-bicarbonate buffer (control) or 10× the final concentration of the compound was added to each well and the incubation was continued for 40 min. Incubation was terminated by addition of 1 ml ice-cold methanol to each well.
In order to isolate IP1 from the cells, the cells were removed from the plates by scraping with plastic pipette tips, and the cell suspension was transferred to 12×75 mm glass tubes. The tubes were thoroughly vortexed, and a 150-μl aliquot, i.e., one-tenth of the total volume, of each reaction mixture was transferred to another tube for protein determination. The water-soluble inositol phosphates were separated from the radiolabelled membrane phospholipids by extraction in 1 ml chloroform. The tubes were incubated at room temperature for 30 min before centrifugation at 500×g for 5 min at 4° C. The aqueous (top) layer containing the [^3H]-inositol phosphates was transferred to 10-ml syringes connected to Accell QMA SEP-PAK columns (Millipore; Calif.), which were attached to an Amersham Superseparator apparatus that was modified to allow collection into 20-ml scintillation vials. Water (10 ml) was added to the cartridge to remove [^3H]-inositol precursor, followed by 4 ml 0.02 M triethylammonium hydrogen carbonated buffer (TEAB, Fluka; N.Y.). To separately remove [^3H]-IP1, [^3H]-IP2 and [^3H]-IP3 from the cartridge, 4 ml of 0.1 M TEAB, 4 ml of 0.3 M TEAB and 4 ml of 0.4 M TEAB were sequentially added to the cartridge and the separate eluate fractions were collected in large scintillation vials. Ecolume cocktail (15 ml; ICN; California) was added to each vial for subsequent scintillation counting to determine the amount of each IP in the separate fractions. Protein concentration was determined using the Bio-Rad Protein Micro-Assay (Bio-Rad, Richmond, Calif.).

[3] = HEK 293 transiently transfected with mGluR5a3 or MMTV-hmGluR5a, fluo-3
[4] = cells transfected with mGluR5a3, varying amounts of compound
[5] = 1 mM, HEK 293 transfected with 0.18 μg of mGluR5a3
[6] = varying amounts of compound, cells transfected with mGluR5a3

T1 sequence (P41594 21-1180 isoform P41594-2 limits assumed): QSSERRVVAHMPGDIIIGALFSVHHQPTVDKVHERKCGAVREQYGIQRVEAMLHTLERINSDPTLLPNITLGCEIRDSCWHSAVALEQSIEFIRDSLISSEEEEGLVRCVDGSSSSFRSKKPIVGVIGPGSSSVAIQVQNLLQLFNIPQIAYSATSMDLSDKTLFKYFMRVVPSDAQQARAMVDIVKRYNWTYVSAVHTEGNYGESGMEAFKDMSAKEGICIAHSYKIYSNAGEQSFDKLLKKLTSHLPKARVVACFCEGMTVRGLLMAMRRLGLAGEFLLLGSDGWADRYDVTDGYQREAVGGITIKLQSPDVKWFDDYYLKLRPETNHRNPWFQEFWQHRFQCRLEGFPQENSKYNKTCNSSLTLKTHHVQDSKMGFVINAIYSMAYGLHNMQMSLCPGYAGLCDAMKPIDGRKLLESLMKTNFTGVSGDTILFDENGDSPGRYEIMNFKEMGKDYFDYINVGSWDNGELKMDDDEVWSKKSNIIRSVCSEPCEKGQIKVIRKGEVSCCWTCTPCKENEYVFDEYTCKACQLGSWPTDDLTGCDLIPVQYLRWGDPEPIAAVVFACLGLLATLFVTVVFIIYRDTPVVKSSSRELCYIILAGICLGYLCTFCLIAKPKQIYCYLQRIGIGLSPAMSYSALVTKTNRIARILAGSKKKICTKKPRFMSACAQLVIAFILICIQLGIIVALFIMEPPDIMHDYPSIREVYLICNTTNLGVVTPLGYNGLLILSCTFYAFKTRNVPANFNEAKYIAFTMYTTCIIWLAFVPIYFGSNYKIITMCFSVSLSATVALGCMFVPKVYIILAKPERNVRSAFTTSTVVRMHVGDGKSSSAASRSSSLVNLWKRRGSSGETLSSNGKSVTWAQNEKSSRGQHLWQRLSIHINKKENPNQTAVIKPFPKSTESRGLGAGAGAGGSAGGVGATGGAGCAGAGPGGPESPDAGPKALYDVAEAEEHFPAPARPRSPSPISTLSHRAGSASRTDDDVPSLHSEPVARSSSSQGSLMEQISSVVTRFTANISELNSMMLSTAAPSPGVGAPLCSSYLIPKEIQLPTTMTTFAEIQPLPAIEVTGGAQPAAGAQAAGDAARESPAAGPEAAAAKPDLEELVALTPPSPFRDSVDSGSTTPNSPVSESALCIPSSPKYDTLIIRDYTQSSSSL

For `N[C@@H](CCC(=O)O)C(=O)O` [glutamate], the “fluorescence change in response to application of compound” value (shortened to “fluorescence change … of compound”) (human mGluR5a receptor [1]; [3]) was “increased”, the “dose-response of peak fluorescence” value (human mGluR5a receptor [1]; [4]) was “magnitude of the peak fluorescence increased with increasing concentration” and the “IP1 levels on treatment with compound” value (human mGluR5a receptor [2]; [5]) was “detectable increases in IP1 levels”. The “dose-response of IP1 levels” value (human mGluR5a receptor [2]; [6]) was “IP1 levels increased with increasing concentration”.

For `NC1(C(=O)O)CCC(C(=O)O)C1` (stereo not drawn) [1S,3R-ACPD, 1-amino-cyclopentyl-1,3-dicarboxylic acid], the “fluorescence change … of compound” value (human mGluR5a receptor [1]; [3]) was “increased”, the “dose-response of peak fluorescence” value (human mGluR5a receptor [1]; [4]) was “magnitude of the peak fluorescence increased with increasing concentration” and the “IP1 levels on treatment with compound” value (human mGluR5a receptor [2]; [5]) was “detectable increases in IP1 levels”. The “dose-response of IP1 levels” value (human mGluR5a receptor [2]; [6]) was “IP1 levels increased with increasing concentration”.

`N[C@@H](Cn1oc(=O)[nH]c1=O)C(=O)O` [quisqualate] was tested, and the “dose-response of peak fluorescence” value (human mGluR5a receptor [1]) was “magnitude of the peak fluorescence increased with increasing concentration”, the “fluorescence change … of compound” value (human mGluR5a receptor [1]) was “increased” and the “fluorescence change in response to compound” value (human mGluR5a receptor [1]) was “increased”. For the same molecule, the “IP1 levels on treatment with compound” value (human mGluR5a receptor [2]) was “detectable increases in IP1 levels” and the “dose-response of IP1 levels” value (human mGluR5a receptor [2]) was “IP1 levels increased with increasing concentration”.
